Source: patent publication US5409933A, “Quinoline derivatives and processes for preparing the same” (priority 1993, dated 1995)
Where a name gives a salt, the structure may show the parent alone. Read-outs that look alike come from different tables or passages of the source.

What was measured:
Assay in all cases: In Vitro Anti-Bacterial Activity Test (MIC, agar dilution)
Assay type in all cases: cell-based
[1] = tested on: Enterobacter cloacae 1321E; conditions: Enterobacter cloacae 1321E; Muller-Hinton agar, 37° C., 18 hours; read-out: MIC
Description: (§1) The above in vitro antibacterial activity test was carried out in accordance with the agar culture medium dilution method (Hoechst 345) by using Muller-Hinton agar medium to determine the minimum inhibitory concentration (MIC).
(§2) The strains having 10^7 C.F.U./ml were inoculated on the culture medium, and the growth of the strains was observed after incubating them at 37° C. for 18 hours, in which ciprofloxacin was used as a control antibacterial agent. In this test, twenty typical strains were used.

[2] = tested on: Enterobacter cloacae P99; conditions: Enterobacter cloacae, P99, 18 h
Description: as §1, §2

[3] = tested on: Escherichia coli 078
Description: as §1, §2

[4] = tested on: Escherichia coli 1507E; conditions: Escherichia coli, 1507E, 18 h, Muller-Hinton agar, 37° C.
Description: as §1, §2

[5] = tested on: Escherichia coli DC0; conditions: Muller-Hinton agar, 37° C., 18 hours, read-out: MIC
Description: as §1, §2

[6] = tested on: Escherichia coli DC2
Description: as §1, §2

[7] = tested on: Escherichia coli TEM; conditions: Escherichia coli, 18 h, Muller-Hinton agar, 37° C.
Description: as §1, §2

[8] = tested on: Klebsiella aerogenes 1522E; conditions: Klebsiella aerogenes, 1522E, 18 h
Description: as §1, §2

[9] = tested on: Klebsiella oxytoca 1082E; conditions: Klebsiella oxytoca 1082E; Muller-Hinton agar, 37° C., 18 hours; read-out: MIC
Description: as §1, §2

[10] = tested on: Pseudomonas aeruginosa 1592E; conditions: Muller-Hinton agar, 37° C., 18 hours, read-out: MIC
Description: as §1, §2

[11] = tested on: Pseudomonas aeruginosa 1771M; conditions: Pseudomonas aeruginosa, 1771M, 18 h, Muller-Hinton agar, 37° C.
Description: as §1, §2

[12] = tested on: Pseudomonas aeruginosa 1771; conditions: Pseudomonas aeruginosa 1771; Muller-Hinton agar, 37° C., 18 hours; read-out: MIC
Description: as §1, §2

[13] = tested on: Pseudomonas aeruginosa 9027; conditions: Muller-Hinton agar, 37° C., 18 hours, read-out: MIC
Description: as §1, §2

[14] = tested on: Salmonella typhimurium; conditions: Salmonella enterica; Salmonella typhimurium; Muller-Hinton agar, 37° C., 18 hours; read-out: MIC
Description: as §1, §2

[15] = tested on: Staphylococcus aureus 285; conditions: Staphylococcus aureus, 285, 18 h, Staphylococcus aureus 285; Muller-Hinton agar, 37° C., 18 hours; read-out: MIC
Description: as §1, §2

[16] = tested on: Staphylococcus aureus 503; conditions: Staphylococcus aureus 503; Muller-Hinton agar, 37° C., 18 hours; read-out: MIC
Description: as §1, §2

[17] = tested on: Staphylococcus aureus SG511; conditions: Staphylococcus aureus SG511; Muller-Hinton agar, 37° C., 18 hours; read-out: MIC
Description: as §1, §2

[18] = tested on: Streptococcus faecium MD8b; conditions: Enterococcus faecium, Muller-Hinton agar, 37° C., 18 hours, read-out: MIC
Description: as §1, §2

[19] = tested on: Streptococcus pyogenes 308A; conditions: Muller-Hinton agar, 37° C., 18 hours, read-out: MIC
Description: as §1, §2

[20] = tested on: Streptococcus pyogenes 77A
Description: as §1, §2

[21] = Klebsiella aerogenes 1522E, Muller-Hinton agar, 37° C., 18 hours, read-out: MIC
[22] = Streptococcus pyogenes 77A, Muller-Hinton agar, 37° C., 18 hours, read-out: MIC
[23] = Escherichia coli 078, Muller-Hinton agar, 37° C., 18 hours, read-out: MIC

Structure (SMILES) | MIC [1] | MIC [2] | MIC ([3]; Escherichia coli, 078, 18 h) | MIC [4] | MIC [5] | MIC ([6]; Escherichia coli, DC2, 18 h) | MIC [7] | MIC [8, 21] | MIC [9] | MIC [10] | MIC [11] | MIC [12] | MIC [13] | MIC [14] | MIC [15] | MIC [16] | MIC [17] | MIC [18] | MIC [19] | MIC [20, 22] | also measured
CN[C@@H]1CCN(c2c(F)cc3c(=O)c(C(=O)C[N+](=O)[O-])cn(C4CC4)c3c2OC)C1 [Example 64, 1-cyclopropyl-6-fluoro-8-methoxy-7-(3-3R-methylaminopyrrolidin-1-yl)-3-(2-nitroacetyl)-1,4-dihydro-4-oxoquinoline hydrochloride] | 0.049 µg/mL | 0.049 µg/mL | 0.049 µg/mL | 0.098 µg/mL | 0.391 µg/mL | 0.049 µg/mL | 0.049 µg/mL | 0.098 µg/mL | 0.007 µg/mL | 1.56 µg/mL | 0.781 µg/mL | 0.781 µg/mL | 1.56 µg/mL | 0.013 µg/mL | 0.098 µg/mL | 0.098 µg/mL | 0.391 µg/mL | 0.391 µg/mL | 0.781 µg/mL |  | MIC ([20]; Streptococcus pyogenes, 77A, 18 h): 0.781 µg/mL
N#CCC(=O)c1cn(C2CC2)c2c(Cl)c(N3CCC(N)C3)c(F)cc2c1=O (stereo not drawn) [Example 42, 1-cyclopropyl-6-fluoro-8-chloro-7-(3-aminopyrrolidin-1-yl)-3-(2-cyanoacetyl)-1,4-dihydro-4-oxoquinoline hydrochloride] | 0.098 µg/mL | 0.781 µg/mL | 0.098 µg/mL | 0.195 µg/mL | 12.5 µg/mL |  | 0.781 µg/mL | 1.56 µg/mL | 0.098 µg/mL | 12.5 µg/mL | 6.25 µg/mL | 6.25 µg/mL | 2.5 µg/mL | 1.56 µg/mL | 3.12 µg/mL | 3.12 µg/mL | 6.25 µg/mL | 12.5 µg/mL | 25 µg/mL | 12.5 µg/mL | MIC ([6]; Escherichia coli DC2, Muller-Hinton agar, 37° C., 18 hours, read-out: MIC): 3.12 µg/mL
CCOC(=O)C(C(=O)OCC)C(=O)c1cn(C2CC2)c2c(Cl)c(N3CC[C@@H](NC)C3)c(F)cc2c1=O [Example 55, 1-cyclopropyl-6-fluoro-8-chloro-7-(3-3R-methylaminopyrrolidin-1-yl)-3-(2,2-diethoxycarbonylacetyl)-1,4-dihydro-4-oxoquinoline hydrochloride] | 0.049 µg/mL | 0.025 µg/mL | 0.013 µg/mL | 0.025 µg/mL | 0.391 µg/mL | 0.098 µg/mL | 0.025 µg/mL | 0.049 µg/mL | 0.025 µg/mL | 0.391 µg/mL | 0.195 µg/mL | 0.391 µg/mL | 1.56 µg/mL | 0.013 µg/mL | 0.195 µg/mL | 0.195 µg/mL | 0.098 µg/mL | 0.391 µg/mL | 1.56 µg/mL | 0.391 µg/mL | 
CNCC1=CCN(c2c(F)cc3c(=O)c(C(=O)C[N+](=O)[O-])cn(C4CC4)c3c2F)C1 [Example 15, 1-cyclopropyl-6,8-difluoro-7-(3-methylaminomethyl-2,5-dihydropyrrol-1-yl)-3-(2-nitroacetyl)-1,4-dihydro-4-oxoquinoline hydrochloride] | < 0.002 µg/mL | 0.004 µg/mL |  | 0.007 µg/mL | 0.098 µg/mL | 0.013 µg/mL | 0.004 µg/mL | 0.013 µg/mL | < 0.002 µg/mL | 0.391 µg/mL | 0.195 µg/mL | 0.391 µg/mL | 0.781 µg/mL | < 0.002 µg/mL | 0.004 µg/mL | < 0.002 µg/mL | < 0.002 µg/mL | 0.025 µg/mL | 0.049 µg/mL | 0.025 µg/mL | MIC [3, 23]: < 0.002 µg/mL
CCOC(=O)C(C(=O)OCC)C(=O)c1cn(C2CC2)c2c(OC)c(N3CC[C@@H](NC)C3)c(F)cc2c1=O [Example 58, 1-cyclopropyl-6-fluoro-8-methoxy-7-(3-3R-methylaminopyrrolidin-1-yl)-3-(2,2-diethoxycarbonylacetyl)-1,4-dihydro-4-oxoquinoline hydrochloride] | 0.098 µg/mL | 0.098 µg/mL | 0.098 µg/mL | 0.391 µg/mL | 1.56 µg/mL | 0.195 µg/mL | 0.098 µg/mL | 0.195 µg/mL | 0.049 µg/mL | 1.56 µg/mL | 0.781 µg/mL | 1.56 µg/mL | 1.56 µg/mL | 0.195 µg/mL | 0.195 µg/mL | 0.195 µg/mL | 0.195 µg/mL | 1.56 µg/mL | 1.56 µg/mL | 1.56 µg/mL | 
NC1CCN(c2nc3c(cc2F)c(=O)c(C(=O)C[N+](=O)[O-])cn3-c2ccc(F)cc2F)C1 (stereo not drawn) [Example 8, 1-(2,4-difluorophenyl)-6-fluoro-7-(3-aminopyrrolidin-1-yl)-3-(2-nitroacetyl)-1,4-dihydro-4-oxo-1,8-naphthyridinehydrochloride] | < 0.002 µg/mL | < 0.002 µg/mL | 0.007 µg/mL | 0.007 µg/mL | 0.195 µg/mL | 0.013 µg/mL | < 0.002 µg/mL | 0.007 µg/mL | < 0.002 µg/mL | 0.195 µg/mL | 0.049 µg/mL | 0.391 µg/mL | 0.391 µg/mL | 0.007 µg/mL | 0.025 µg/mL | 0.025 µg/mL | 0.049 µg/mL | 0.391 µg/mL | 0.781 µg/mL | 0.195 µg/mL | 
CCOC(=O)C(C(=O)OCC)C(=O)c1cn(C2CC2)c2c(Cl)c(N3CC=C(CNC)C3)c(F)cc2c1=O [Example 28, 1-cyclopropyl-6-fluoro-8-chloro-7-(3-methylaminomethyl-2,5-dihydropyrrol-1-yl)-3-(2,2-diethoxycarbonylacetyl)-1,4-dihydro-4-oxoquinoline hydrochloride] | < 0.002 µg/mL | < 0.002 µg/mL |  | 0.013 µg/mL | 0.195 µg/mL | 0.049 µg/mL | 0.013 µg/mL | 0.013 µg/mL | 0.007 µg/mL | 0.391 µg/mL | 0.195 µg/mL | 0.781 µg/mL | 0.781 µg/mL | 0.013 µg/mL | 0.007 µg/mL | < 0.002 µg/mL | 0.004 µg/mL | 0.049 µg/mL | 0.098 µg/mL | 0.049 µg/mL | MIC [3, 23]: < 0.002 µg/mL
N#CCC(=O)c1cn(C2CC2)c2c(Cl)c(N3CC4=C(CNC4)C3)c(F)cc2c1=O [Example 44, 1-cyclopropyl-6-fluoro-8-chloro-7-(3,7-diazabicyclo[3.3.0]oct-1,5-en-3-yl)-3-(2-cyanoacetyl)-1,4-dihydro-4-oxoquinoline hydrochloride] | 0.098 µg/mL | 0.195 µg/mL | 0.195 µg/mL | 0.781 µg/mL | 3.12 µg/mL | 1.56 µg/mL | 0.391 µg/mL |  | 0.195 µg/mL | 6.25 µg/mL | 3.12 µg/mL | 12.5 µg/mL | 12.5 µg/mL | 0.195 µg/mL | 6.25 µg/mL | 6.25 µg/mL | 6.25 µg/mL | 25 µg/mL | 25 µg/mL | 25 µg/mL | MIC [8]: 0.391 µg/mL
CCOC(=O)C(C(=O)OCC)C(=O)c1cn(C2CC2)c2c(Cl)c(N3CC[C@H](NC)C3)c(F)cc2c1=O [Example 56, 1-cyclopropyl-6-fluoro-8-chloro-7-(3-3S-methylaminopyrrolidin-1-yl)-3-(2,2-diethoxycarbonylacetyl)-1,4-dihydro-4-oxoquinoline hydrochloride] | 0.049 µg/mL | 0.013 µg/mL | 0.007 µg/mL | 0.013 µg/mL | 0.195 µg/mL | 0.049 µg/mL | 0.013 µg/mL | 0.049 µg/mL | 0.013 µg/mL | 0.391 µg/mL | 0.098 µg/mL | 0.391 µg/mL | 0.781 µg/mL | 0.007 µg/mL | 0.098 µg/mL | 0.098 µg/mL | 0.049 µg/mL | 0.195 µg/mL | 0.781 µg/mL | 0.195 µg/mL | 
